Measurements: US20250152577A1, “Pharmaceutical Composition of Ethidium Bromide and Use in Treating Cancer” (RUIJIN HOSPITAL, SHANGHAI JIAOTONG UNIVERSITY SCHOOL OF …, priority 2022, published 2025)

Assays:
[1] = test system: mouse melanoma cells B16; test: Subcutaneous B16 melanoma in C57 mice, intraperitoneal administration; assay type: in vivo; conditions: intraperitoneal 10 mg/Kg
Procedure: In order to further test whether ethidium bromide still has strong anti-tumor activity against solid tumors in vivo, C57 mice were first injected subcutaneously with 2×10^6 mouse melanoma cells B16, and the administration was initiated after about 10 days when the subcutaneous tumor volume of the mice reached about 30 mm^3. We first treated the mice by traditional intraperitoneal administration (10 mg/Kg). […] So after 3 days, we switched to injecting every other day. […] Although the tumors of the mice in the dosing group were slightly smaller than those in the control group, the tumor suppression effect was not obvious (FIG. 18C).

[2] = test system: 3T3-L1; test: Median lethal dosage (IC50) against normal cell lines; assay type: cell-based; conditions: Mus musculus; 3T3-L1 normal cells
[3] = test system: MDA-231 Breast cancer; test: Median lethal dosage (IC50) against tumor cell lines; assay type: cell-based; conditions: Homo sapiens, MDA-MB-231; MDA-231 breast cancer tumor cells
[4] = test system: colorectal cancer cells RKO; test: Intraperitoneal RKO in nude mice, intraperitoneal administration; assay type: in vivo; conditions: intraperitoneal 10 mg/Kg once daily until day 5
Procedure: In addition, we also tested for nude mice utilizing intraperitoneal administration, where 2×10^6 colorectal cancer cells, RKO, were first injected intraperitoneally in nude mice, and about 3 days later, we treated the nude mice using intraperitoneal administration (10 mg/Kg).

[5] = test system: normal cells; test: Median lethal dosage, summary over normal cells; assay type: cell-based; conditions: mostly, normal cells of Table 1; read-out: median lethal dosages against normal cells
[6] = test system: pancreatic cancer cells Panc1; test: Intraperitoneal injection of pancreatic cancer cells Panc1 in nude mice; assay type: in vivo; conditions: for tumor in the pancreas: start 3 days after cell injection
Procedure: To further verify whether ethidium bromide can inhibit tumor migration in vivo, we injected 2×10^6 pancreatic cancer cells Panc1 intraperitoneally into nude mice, which were then divided into 3 groups: control group, gavage, and intravenous injection administration. Mice in the gavage-administration group were started with gavage oral administration of 20 mg/Kg ethidium bromide per day by gavage 3 days after intraperitoneal injection of pancreatic cancer cells. Mice in the intravenous administration group were administered with 5 mg/Kg ethidium bromide per day intravenously (Tail-IV) 3 days after intraperitoneal injection of pancreatic cancer cells.
In order to further investigate the anti-tumor effect of ethidium bromide on nude mice with advanced tumorigenicity and to obtain its effect on the viability of nude mice, we intraperitoneally injected the nude mice with 2×10^6 pancreatic cancer cells Panc1, which were then divided into 3 groups, the control group (no-treatment group), the early-injection group (administered intravenously after 3 days) and the late-injection group (administered intravenously after 14 days). Mice in the early injection group were administered with 5 mg/Kg ethidium bromide intravenously per day for 3 weeks 3 days after intraperitoneal injection of pancreatic cancer cells (starting intravenous administration after 3 days for about 3 weeks). Mice in the late injection group were administered with 5 mg/Kg ethidium bromide intravenously per day for 3 weeks starting 2 weeks days after intraperitoneal injection of pancreatic cancer cells (starting intravenous administration after 14 days for about 3 weeks).
In addition, we utilize the most advanced nuclear magnetic spectrometer uMR 9.4T with a 30 cm aperture magnet jointly developed by our work unit and Shanghai United Imaging Healthcare Co., LTD, as well as our self-developed GC, GPA, and VTC42 coils specially designed for abdominal scanning, and an optional PET insert system to achieve the PET-MR imaging results of the temporal and spatial integrality. The development of pancreatic cancer was followed dynamically in the control and dosing groups following intraperitoneal injection of pancreatic cancer cells. Mice were injected intraperitoneally with 2×10^6 pancreatic cancer cells, Panc1, and left for 2 weeks after which a visible tumor mass can be detected in the abdominal cavity to begin intravenous administration of 5 mg/Kg ethidium bromide for 4 weeks. […] Moreover, the abdominal cavity of the control mice was filled with ascites by the late stage (where the arrows are shown), whereas there was none in the dosing group (FIGS. 13A and 13B). […] However, clearance was not achieved mostly as in the previous results and we analyzed that it might be due to the fact that the mice were kept in a non-SPF environment during the whole administration period of MRI, thus affecting the effect of the drug.

[7] = test system: AOM+DSS-induced colorectal tumor; test: AOM+DSS-induced spontaneous colorectal cancer mouse model; assay type: in vivo, mice
Procedure: The classical intraperitoneal injection of AOM and the spontaneous colorectal cancer formation by three rounds of DSS were utilized to construct a tumor mouse model. Mice were treated with ethidium bromide (500 mg/L dissolved in drinking water) one week after completion of the construction. […] Mice were sacrificed and their colorectum was taken for photographic observation and fixed staining.
To further verify the above results, we then expanded the sample size to about 10-16 mice per group and still used the above AOM+DSS protocol to induce spontaneous colorectal cancer formation in mice. […] Meanwhile, since it has been reported that zalcitabine (ddC) can effectively impair the function of mitochondria (mainly the replication of mtDNA, similar to ethidium bromide), we added the experimental group of zalcitabine (33 mg/Kg) as a control.
In addition, in order to investigate in what way ethidium bromide clears tumors in mice, we also tested cell proliferation (FIGS. 8A and B) and apoptosis (FIG. 8C-F) in tumor tissues and normal tissues surrounding the tumors in different treatment groups. Among them, cell proliferation was detected by immunohistochemistry of Ki67-positive cells, and apoptosis was detected by immunofluorescence staining of cleaved Caspase3.
To further verify whether ethidium bromide is still effective against already existing larger tumors (advanced colorectal cancer), we set aside a group of control mice (started administration 5 weeks after the end of induction, equivalent to the control group of mice described above) to administer them by gavage (20 mg/Kg per day).
We investigated the mechanism of ethidium bromide-induced apoptosis in tumor cells. First, tumor tissues treated with ethidium bromide (mice shown in FIGS. 7 and 8, treated for 4 weeks at 20 mg/Kg per day) were subjected to SDS-Loading buffer boiling lysis and tested for associated signaling pathways by Western blotting.

[8] = test system: PANC1 Pancreatic cancer; test: Median lethal dosage (IC50) against tumor cell lines; assay type: cell-based; conditions: Homo sapiens, PANC-1; PANC1 pancreatic cancer tumor cells
[9] = test system: tumor tissue blocks (PDX) from patients with colorectal cancer; test: Subcutaneous patient colorectal cancer graft (PDX) in nude mice; assay type: in vivo
[10] = test system: GES1; test: Median lethal dosage (IC50) against normal cell lines; assay type: cell-based; conditions: Homo sapiens; GES1 normal cells
[11] = gavage 20 mg/Kg once daily, one month

CC[n+]1c(-c2ccccc2)c2cc(N)ccc2c2ccc(N)cc21 [ethidium bromide, Ethidium bromide]
tumor suppression effect [1]: not obvious | body weight ([1]; after 3 days of continuous injection): lose weight significantly | survival of mice by the end of the experiment ([1]; daily 3 days then every other day): only 1 of the 19 mice survived | IC50 [2]: 67.9 µM | IC50 [3]: 5.4 µM | deaths [4]: excessive deaths in nude mice | IC50 [5]: > 50 µM | weight of the pancreas ([6]; administration group, especially intravenous injection, vs control): significantly smaller than that of the control group | body weights ([6]; dosing group, intravenous 5 mg/Kg per day, 3 weeks): relatively stable | pancreatic cancer tumor (weight) vs control ([6]; dosing groups, intravenous 5 mg/Kg per day, 3 weeks): significantly smaller than that in the control group | nude mice with no tumor ([6]; early injection group: intravenous 5 mg/Kg per day from day 3, 3 weeks): More than 80% | tumor in the pancreas ([6]; gavage 20 mg/Kg per day): still had a small amount of tumor, but was significantly smaller than that in the control group | tumor in the pancreas ([6]; intravenous 5 mg/Kg per day): no tumor was found in the pancreas | growth of pancreatic cancer in the abdominal cavity (MRI) ([6]; intravenous 5 mg/Kg, start 2 weeks after cell injection, 4 weeks): significantly inhibited, or almost completely inhibited | body weight ([6]; intravenous injection compared with gavage): did not cause a significant decrease in body weight | blood hemoglobin ([6]; late dosing group, intravenous 5 mg/Kg per day, 3 weeks): remained relatively normal | tumors in the liver tissues vs control ([6]; late injection group): significantly reduced | nude mice with no tumor at all ([6]; late injection group: intravenous 5 mg/Kg per day from day 14, 3 weeks): about 45% | weights of liver and pancreatic tissues vs control ([6]; late-injected group): significantly smaller | colorectal tumor mass ([7]; 500 mg/L in drinking water, start one week after model construction, 2 months): almost complete disappearance of the tumor mass | cleaved Caspase3, phosphorylation of Erk, LC3 level in tumor tissues (Western blotting) ([7]; 4 weeks at 20 mg/Kg per day): significant increase in cleaved Caspase3 | body weight [7, 11]: little changed | mice with complete disappearance of spontaneous colorectal tumors [7, 11]: more than 80% | mtDNA copy number of colorectal tumors [7, 11]: did not alter the mitochondrial mtDNA copy number | size of the spleen, length of colorectum, weight of tissue organs vs control [7, 11]: healthier | mice achieving complete tumor clearance ([7]; larger (advanced) tumors, start 5 weeks after end of induction, gavage 20 mg/Kg per day, 1 month): more than 40% | Caspase3-positive tumor cells (apoptotic cells, immunofluorescence) ([7]; vs other groups and surrounding normal tissues): significantly higher | proliferation of tumor cells (Ki67-positive, immunohistochemistry) ([7]; vs other treatment groups): significantly lower | IC50 [8]: 3.3 µM | subcutaneous tumor mass ([9]; 20 mg/Kg in PBS injected directly into the tumor, once a day, three injections): rapidly necrotic and eventually died and fell off | anti-tumor effect ([9]; intravenously administered): very limited | IC50 [10]: 64.7 µM
